In one test the target is Cdk4-cyclin D1 (Homo sapiens, UniProt P11802). Nature of the test: In vitro kinase assay, Cdk4-cyclin D1 (in-house). Type of test: biochemical. The procedure:
(§1) The in vitro kinase assays for testing against Cdk4-cyclin D1, Cdk2-cyclin A, Cdk1-cyclin B1 and Cdk9-cyclin T1 were performed in-house. The methodology and results have been reported previously.[20], [30], [31], [32], [45] The kinase profiling for 58 representative kinases was carrried out commercially at Millipore Bioscience Division, Livingston, UK.

Test [1] concerns MiaPaCa (pancreatic; p53His273mut, pRb+). Nature of the test: Cell proliferation (MTT) assay, MiaPaCa. Type of test: cell-based. Particulars: Homo sapiens, MIA PaCa-2, 48 h, read-out: IC50 cell growth inhibition, MiaPaCa. The method, then:
(§2) All 10 human cancer cell lines were maintained at 37 °C in 5% CO2 in RPMI-1640 medium, supplemented with 10% foetal calf serum and 100 μg/ml normocin. The 10 cancer cell lines used for screening were all obtained from ATCC (Manassas, VA, USA); they were the NSCLC (a form of cancer that is resistant to chemotherapy) lines: NCI-H460 (pRb^+, p53^+), A549 (pRb^+, p53^+), Calu-1 (pRb^+, p53-null), NCI-H1299 (pRb^+, p53-null), NCI-H358 (pRb-null, p53-null); the colon cancer line LS174T (pRb^+, p53^+); the prostate cancer line PC-3 (pRb^+, p53-null); the pancreatic cancer line MiaPaca (pRb^+, p53-mutant). The genotypes within brackets indicate the status of the tumour suppressor proteins pRb and p53. The mouse embryonic normal hepatic cell line (BNL CL2) and its SV40 large T-antigen-transformed counterpart cell line (BNL SV A.8) were also purchased from ATCC. The large T-antigen inactivates the tumour suppressor proteins p53 and pRb. The detailed procedure of cell proliferation (MTT) assay and IC50 determination was described previously.[32]

A further test relates to A549 cells. Nature of the test: Flow cytometric cell cycle analysis, A549. Type of test: cell-based, human. As to conditions: 24 h. The procedure:
The untreated (control) and treated (with test compounds) cells were harvested by trypsinization, washed once with PBS and then fixed in 70% chilled (−20 °C) ethanol for minimum 1 h. After the fixation step, cells were centrifuged for 5 min at 3000 × g at room temperature, and the pellet was suspended in PBS containing 50 μg/ml propidium iodide (Sigma-Aldrich, Dorset, UK; cat. no. P-4170) and 0.5 mg/ml DNase-free ribonuclease (Sigma-Aldrich; cat. no. R-5503). The cells were stained for 1 h in the dark at 4 °C. Cell cycle analysis was performed on the Beckman Coulter (Epics Altra) fluorescence-activated cell sorter (Beckman Coulter UK Ltd, Buckinghamshire, UK). To gate all the events that represent single cells, and not cell doublets or cell clumps, the following analyses were performed on the samples. Cytograms of propidium iodide fluorescence peak signal versus integrated fluorescence or the linear signal were plotted. All data points on the straight line were isolated in a single gate and the gated data was further used for plotting a histogram that represents a complete cell cycle. The total number of events was not allowed to exceed 200 events per s. Data acquisition was stopped after a minimum of 10 000 events had been collected.

In test [2] the test system is Calu-1 (NSCLC; p53 null, pRb+). The test is described as follows: Cell proliferation (MTT) assay, Calu-1. Type of test: cell-based, human. The procedure:
as §2

Another test concerns the target Cdk9-cyclin T1 (Homo sapiens, UniProt P50750). Nature of the test: In vitro kinase assay, Cdk9-cyclin T1 (in-house). Type of test: biochemical. As to conditions: three independent experiments; read-out: IC50 (mean±S.D.), Cdk9-cyclin T1. The method, then:
as §1

For test [3], the system named is BNL CL2 (mouse normal hepatic cells). The test is described as follows: Cell proliferation (MTT) assay, BNL CL2. Type of test: cell-based. The procedure: as §2
A further test addresses EGFR (Homo sapiens, UniProt P00533). Nature of the test: Kinase profiling (Millipore), EGFR. Type of test: biochemical. The procedure: as §1
In test [4] the test system is p53+ A549 and LS174T cells. The test is described as follows: Western blot of cell cycle proteins in p53+ cells. Type of test: cell-based, human. As to conditions: IC50 concentration, 24 h. The procedure: A549, LS174T and MiaPaCa cells were seeded in 25 cm^2 tissue culture flasks in the complete growth medium. […] Cells were harvested by trypsinization, washed in ice-cold PBS and then lysed in buffer (Sigma-Aldrich; cat. no. C-2978) containing protease inhibitor cocktail (Sigma-Aldrich; cat. no. P8340). The lysates were centrifuged at 14 000 r.p.m. (revolutions per minute) for 10 min at 4 °C and the total protein concentrations were estimated in the clear supernatants using the Bradford method. Equal amounts of protein (40 μg) were loaded and electrophoresed on 10% SDS-polyacrylamide gels and blotted on Immobilon-P Transfer Membrane (Millipore; cat. no.IPVH20200). The blots were probed with respective primary antibodies (at 4 °C, overnight) at the following dilutions: cdc2 (New England Biolabs, Hitchin, UK; cat. no. 9110) at 1 : 1000 to detect Cdk1; cyclin B1 (CRUK, London, UK; cat. no. V152) at 1 : 1500 dilution to detect cyclin B1; Pab 1801 (Santa Cruz Biotechnology, Heidelberg, Germany; cat. no. sc-98) at 1 : 500 dilution to detect p53; N-20 (Santa Cruz Biotechnology; cat. no. sc-469) at 1 : 500 dilution to detect p21; C-19 (Santa Cruz Biotechnology; cat. no. sc-528) at 1 : 250 dilution to detect p27; AC-40 (Sigma-Aldrich; cat. no. A4700) at 1 : 2000 dilution to detect actin. Appropriate secondary antibodies conjugated with horseradish peroxidase were used and the protein bands were visualized by chemiluminescence using the ECL Kit (Santa Cruz Biotechnology; cat. no. sc-2048).

Test [5] relates to LS174T (colorectal carcinoma; p53+, pRb+). The test is described as follows: Cell proliferation (MTT) assay, LS174T. Type of test: cell-based. Particulars: Homo sapiens, 48 h, read-out: IC50 cell growth inhibition, LS174T. The method, then: as §2
The mark [6] stands for this setting: BNL CL2, concentration used in long-term survival assay (Fig. S3).

Each structure is given as a SMILES string. Where two headings read alike, the source gives them in different places.

Sequence of Cdk4-cyclin D1 (P11802 whole entry): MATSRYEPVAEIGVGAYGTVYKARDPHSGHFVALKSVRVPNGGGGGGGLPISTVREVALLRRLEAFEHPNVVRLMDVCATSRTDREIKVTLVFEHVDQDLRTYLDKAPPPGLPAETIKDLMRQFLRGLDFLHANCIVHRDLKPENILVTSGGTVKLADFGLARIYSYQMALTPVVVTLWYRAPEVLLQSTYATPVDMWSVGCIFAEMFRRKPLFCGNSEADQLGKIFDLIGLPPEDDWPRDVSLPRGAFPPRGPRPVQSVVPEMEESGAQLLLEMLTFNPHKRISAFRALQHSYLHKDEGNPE
Sequence of Cdk4-cyclin D1 (P24385 whole entry partner): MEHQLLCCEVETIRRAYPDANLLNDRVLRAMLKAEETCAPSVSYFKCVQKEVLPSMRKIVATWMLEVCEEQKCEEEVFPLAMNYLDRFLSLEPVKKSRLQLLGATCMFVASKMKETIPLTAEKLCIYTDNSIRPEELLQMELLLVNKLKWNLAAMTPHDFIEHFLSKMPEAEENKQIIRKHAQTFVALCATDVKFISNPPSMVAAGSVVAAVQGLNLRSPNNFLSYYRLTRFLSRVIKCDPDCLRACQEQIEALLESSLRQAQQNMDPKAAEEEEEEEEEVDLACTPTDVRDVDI
Sequence of EGFR (P00533 25-1210): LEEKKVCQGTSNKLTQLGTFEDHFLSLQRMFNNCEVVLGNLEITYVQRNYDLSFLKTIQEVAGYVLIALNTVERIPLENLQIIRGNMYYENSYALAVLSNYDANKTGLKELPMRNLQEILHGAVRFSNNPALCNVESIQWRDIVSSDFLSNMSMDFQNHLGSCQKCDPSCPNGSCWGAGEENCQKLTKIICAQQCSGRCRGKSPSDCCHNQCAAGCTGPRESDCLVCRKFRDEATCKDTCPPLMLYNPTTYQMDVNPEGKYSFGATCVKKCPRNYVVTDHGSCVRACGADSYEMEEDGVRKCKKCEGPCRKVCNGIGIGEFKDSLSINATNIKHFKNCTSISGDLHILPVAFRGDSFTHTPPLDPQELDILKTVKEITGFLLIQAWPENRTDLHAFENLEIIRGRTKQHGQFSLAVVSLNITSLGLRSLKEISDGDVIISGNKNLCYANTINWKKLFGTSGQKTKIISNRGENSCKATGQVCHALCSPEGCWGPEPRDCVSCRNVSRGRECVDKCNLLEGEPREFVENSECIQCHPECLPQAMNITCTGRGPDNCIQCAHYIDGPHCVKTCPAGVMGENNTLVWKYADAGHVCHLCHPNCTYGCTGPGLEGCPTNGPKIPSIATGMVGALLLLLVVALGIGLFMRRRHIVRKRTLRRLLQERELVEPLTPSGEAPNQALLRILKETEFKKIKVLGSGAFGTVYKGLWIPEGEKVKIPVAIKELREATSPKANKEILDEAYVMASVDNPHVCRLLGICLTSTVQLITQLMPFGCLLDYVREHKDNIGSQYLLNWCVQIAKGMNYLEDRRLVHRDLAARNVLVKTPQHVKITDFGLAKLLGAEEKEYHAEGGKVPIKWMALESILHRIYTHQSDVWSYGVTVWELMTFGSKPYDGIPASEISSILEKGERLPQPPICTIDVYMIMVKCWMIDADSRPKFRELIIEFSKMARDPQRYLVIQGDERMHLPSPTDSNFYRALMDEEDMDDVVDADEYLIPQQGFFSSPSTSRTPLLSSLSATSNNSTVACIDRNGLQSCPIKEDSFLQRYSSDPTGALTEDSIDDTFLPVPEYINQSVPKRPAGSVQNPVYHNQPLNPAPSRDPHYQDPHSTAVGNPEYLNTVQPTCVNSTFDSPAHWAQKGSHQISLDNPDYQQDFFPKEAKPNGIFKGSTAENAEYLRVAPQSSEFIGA
Sequence of Cdk9-cyclin T1 (P50750 whole entry): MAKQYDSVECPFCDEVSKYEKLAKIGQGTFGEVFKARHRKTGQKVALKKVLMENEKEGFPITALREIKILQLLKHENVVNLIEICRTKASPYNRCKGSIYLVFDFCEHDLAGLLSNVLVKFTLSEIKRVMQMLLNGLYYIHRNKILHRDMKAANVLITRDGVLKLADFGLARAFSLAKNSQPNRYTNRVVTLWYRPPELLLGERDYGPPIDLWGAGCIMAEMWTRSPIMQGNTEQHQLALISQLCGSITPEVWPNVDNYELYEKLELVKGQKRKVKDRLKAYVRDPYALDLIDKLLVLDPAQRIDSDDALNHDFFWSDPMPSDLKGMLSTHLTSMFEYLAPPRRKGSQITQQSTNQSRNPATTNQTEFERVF
Sequence of Cdk9-cyclin T1 (O60563 whole entry partner): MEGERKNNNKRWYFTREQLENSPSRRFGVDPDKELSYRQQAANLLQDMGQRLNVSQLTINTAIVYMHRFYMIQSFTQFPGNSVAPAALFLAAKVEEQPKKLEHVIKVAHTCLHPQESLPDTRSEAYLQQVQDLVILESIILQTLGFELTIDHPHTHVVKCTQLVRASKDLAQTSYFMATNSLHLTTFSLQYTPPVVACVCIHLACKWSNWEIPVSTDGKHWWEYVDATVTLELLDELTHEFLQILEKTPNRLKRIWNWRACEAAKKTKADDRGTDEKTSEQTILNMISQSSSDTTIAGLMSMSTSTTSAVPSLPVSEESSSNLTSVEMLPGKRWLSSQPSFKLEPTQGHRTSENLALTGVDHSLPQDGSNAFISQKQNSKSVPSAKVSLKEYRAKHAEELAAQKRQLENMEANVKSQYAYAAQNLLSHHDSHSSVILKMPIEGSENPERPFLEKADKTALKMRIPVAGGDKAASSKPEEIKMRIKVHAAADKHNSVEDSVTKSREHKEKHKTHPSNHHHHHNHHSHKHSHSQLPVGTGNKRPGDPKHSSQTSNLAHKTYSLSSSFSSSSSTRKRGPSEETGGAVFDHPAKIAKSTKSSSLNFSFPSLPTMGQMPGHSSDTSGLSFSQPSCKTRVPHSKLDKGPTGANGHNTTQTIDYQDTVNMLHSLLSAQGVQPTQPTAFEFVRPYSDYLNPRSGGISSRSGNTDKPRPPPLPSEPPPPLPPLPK

As for `O=C(c1ccccc1-c1ccccc1)N1CCc2c([nH]c3ccccc23)C1` [BPT, 2-(biphenyl-2-carbonyl)-2,3,4,9-tetrahydro-1H-pyrido[3,4-b]indole], on Cdk4-cyclin D1, the “selectivity for Cdk4-cyclin D1 with respect to Cdk2-cyclin A” value worked out at 83 fold. Moreover, the IC50 is 10 ± 1.2 µM on Cdk4-cyclin D1 (three independent experiments, read-out: IC50 (mean±S.D.), Cdk4-cyclin D1); 0.8 µM in [1]; 2.8 µM in test [2] (Homo sapiens, Calu-1, 48 h, MTT, read-out: IC50 cell growth inhibition, Calu-1); > 1000 µM on Cdk9-cyclin T1; 0.72 µM in test [3] (Mus musculus, BNL CL.2, 48 h, MTT, read-out: IC50 cell growth inhibition, BNL CL2); 0.6 µM in test [3] (Mus musculus, BNL CL.2, BNL CL2, concentration used in long-term survival assay (Fig. S3), read-out: IC50). Moreover, the half-maximal inhibitory concentration (IC50) on EGFR is > 10 µM; in test [5], 0.85 µM. Also, the “cells in G2/M” value with A549 cells (A549, IC50 concentration) came to 82%; in the test on A549 cells (A549, IC70 concentration), 59%. For the same compound, in the test with A549 cells (A549, IC70 concentration), the “cells in G0/G1” value is 15%. Further, the “cells in Sub G1 (apoptotic)” value with A549 cells (A549, IC70 concentration) was 13%. In addition, the “resistance of Calu-1 cells to growth inhibition” value in test [2] (relative to other cell lines) is “two- to three-fold”. In addition, in test [3] (setting [6]), the IC30 is 0.4 µM. The same compound had an IC70 in [3] (setting [6]) of 0.9 µM. This compound gave an IC20 in test [3] (Mus musculus, BNL CL.2, BNL CL2, concentration used in long-term survival assay (Fig. S3)) of 0.25 µM. In [4], the “induction of p53” value is “more than 10 fold”. For the same compound, the “levels of p21CIP1/WAF1 (p21)” value in test [4] was “increase”. For the same compound, the “levels of p27KIP1 (p27)” value in [4] is reported as “elevated”. Moreover, the “Cdk1 and cyclin B1 protein levels” value in test [4] (versus untreated control) is recorded as “downregulated”.

Values taken from paper PMC4669722, “Antitumour potential of BPT: a dual inhibitor of cdk4 and tubulin polymerization” (Cell Death & Disease, 2015).
